Data from patent publication US6911454B1, “Method for potentiating primary drugs in treating multidrug resistant disease” (priority 1989, dated 2005).
Entries after “also recorded” stand apart in the source; their conditions may differ.

What was measured:
DX20 cancer cells = test: modified MTT assay, drug sensitivity of DX20 cells; format: cell-based, human
Excerpt: The MES-SA/DX20 cell line was established according to the development methods of Sikic et al., Resistance to Antineoplastic Drugs, Chap. 3, CRC Press, Ed. David Kessel, pp. 37-47 (1989). In vitro drug sensitivity testing consisted of two assay models, the modified MTT assay (Mossman, J. Immunolog. Methods, Vol. 65, pp. 55-63, 1983) and the colonogenic assay. In addition to this, the combinations were investigated in vivo in nude mice bearing the DX20 cell line. The MTT assay was chosen because of its practical advantages in large-scale screening. The assay involved cellular conversion of tetrazolium salt to a colored formazan serving as a measurement of cell viability.
In a given experiment, culture media, 50 microliters, containing 8,000-25,000 cells, depending on the proliferation rate of the cell line, was pipetted into each well of several 96-well microtiter plates. The cells were allowed to attach overnight. […] The cytotoxic drug, also at a concentration below that previously established as an IC50, was then added at decreasing concentrations by 25% to several half plate sections. The cells were allowed to grown for 72 hours. 100 microliters of media was then removed and 25 microliters of 5 mg/ml MTT (Sigma, St. Louis, Mo.) in phosphate buffered saline was added to each well. The plates were kept in an incubator at 37° C. and 5% CO2. After 2-3 hours of incubation, the extraction buffer containing 20% w/v SDS and 50% DMF was added and the plates again incubated overnight. The plates were read at a test wavelength of 570 nm on a multiwell spectrophotometer (Model MR 700, Dynatech Laboratories, Alexandria, Va.). Each drug combination was tested in triplicate. Percent survival was defined as percent of optical density (OD) of the drug-treated wells to that of the control detected by the spectrophotometer.
The in vitro drug sensitivity testing of ethyl fangchinoline consisted of two assay models, the modified MTT (Mossman 1983) and a colony formation assay in which a direct measure was taken by quantitation of colony formation. The MTT assay was chosen because of its practical advantages in large scale screening. The assay involves cellular conversion of tetrozolium salt to a colored formazan serving as a measurement of cell viability.
Two human cell lines were chosen as the primary targets of study in reversing multiple-drug resistance. The MES-SA, a sarcoma, and its resistant subline, DX-20, were kindly donated by Dr. B. Sikic (U of Stanford, Stanford, Calif.). The A2780, an ovarian cancer, and its resistant subline, A2780-ad10, were provided by Roswell Park Memorial Inst. (Buffalo, N.Y.).
Culture media, 50 ul containing 8,000 to 25,000 cells depending on the proliferation rate of the line, was pipetted into each of 96 wells in a flat bottom tissue plate. The cells were incubated overnight to allow adherence. One hundred ul of ethyl fangchinoline, at a concentration below that previously established as an independent IC50, was added to each experimental well. […] The plates were then incubated for 72 hours before MTT was added and the analysis of O.D. values interpreted by a multi-plate scanner (MR700, Dynatech).

[1] = tested on: multidrug resistant human cancer (DX20); format: in vivo, mice; details: d-tetrandrine 0.5, 1, 1.5 mg injections; doxorubicin 5.5 mg per kg; about one month
Protocol: It is only important that they be administered sufficiently close together that the cancer is exposed to both simultaneously. For example, nude mice infected with a multidrug resistant human cancer were given 0.5 mg, 1 mg and 1.5 mg respectively in three separate injections, 72 hours apart.

[2] = L.D.50 by single escalating injections; format: in vivo, mice
Protocol: In addition, the effects of d-Tetrandrine-(S) plus doxorubicin in Nu/Nu athymic mice inoculated with DX20 sarcoma cells, 76×resistant when compared to the parent MES-SA cells were examined. Four cohorts of nude animals bearing the DX20 tumor were treated in groups of 5 (control, doxorubicin, d-tetrandrine, and doxorubicin+d-tetrandrine). […] (See FIG. 6). Tumor size was calculated using the formula (4 Pi/3) X*Y*2Z. […] An L.D.50 dose of 260 mg/kg was also calculated by administering single escalating injections of the compound. Tables I & II and FIG. 6 give the actual measurements.

DX20 = details: FIG. 5; colony formation, 7 days; addition of d-tetrandrine
Protocol: The second assay model used, colony formation assay, consisted of 1000-1500 cells, again depending on the proliferation rate of the cell line being added to each well of 24 well microtiter plates in 500 microliters of culture media. The cells were allowed to attach overnight. […] The plates were incubated for a total of 7 days before being fixed in 2.5% glutaraldehyde and stained with crystal violet. Quantitations of colony growth were assessed using an ultrasensitive imaging device (LCVS-5, I.P.S., Pittsburgh, Pa.). A colony is defined as any cluster of 30 or more cells. Percent inhibition was directly measured against control plates containing no drugs.

[3] = tested on: resistant (K562-R7) cancel cells; test: doxorubicin fluorescence test by flow cytometry; format: cell-based; details: FIG. 12, resistant cells pre-incubated with tetrandrine
breast cancer = test: treatment of a person with breast cancer; format: in vivo, human; details: d-tetrandrine 180 mg per day orally from day 95, with trichemo (5-fluorouracil, cyclophosphamide, doxorubicin)
Protocol: A person with breast cancer was given d-tetrandrine orally, three times a day for a total of 180 mg per day, over a two week period. Five days after the beginning of that treatment, they were given a trichemo soup of 5-fluorouracil, cyclophosphamide and doxorubicin. Eight days later, near the end of the d-tetrandrine dosage, they were given 5-fluorouracil. This regime was followed two different times approximately two weeks apart during the course of retreatment.
A person with very serious breast cancer has also been successfully treated in accordance with the method of the present invention. The tables below describe their treatment regime, which involved a trichemo soup of 5-fluorouracil, cyclophosphamide and doxorubicin, administered intermittently with 5-fluorouracil alone. No d-tetrandrine was administered until day 95.
FIG. 11 is a graphical log of […] tumor area in cubic centimeters charted against days elapsed. The tumor initially responded to the trichemo treatment alone, reducing in size until day 50.
The patient was diagnosed via biopsy on Mar. 19, 1991 as having an infiltrated carcinoma (poorly differentiated) on the right breast. […] They were treated with a combination of 5-fluorouracil, cyclophosphamide and doxorubicin according to the schedule shown below. […] Notice the increase in tumor size between days 50 and 100 indicating the formation of drug resistance.

[4] = d-Tetrandrine-(S) detected at the tumor; format: in vivo, mice; details: 3 intraperitoneal injections over 120 hours, 150 mg/kg total
A2780AD10 = details: FIG. 4; A2780AD10 versus parent A2780; addition of d-tetrandrine

COc1ccc2cc1Oc1ccc(cc1)C[C@H]1c3cc(c(OC)cc3CCN1C)Oc1c(OC)c(OC)cc3c1[C@H](C2)N(C)CC3 [TT, tetrandrine]
IC50 (DX20 cancer cells; DX20 cells, single agent, read-out: IC50 alone): 4.3 µM
doxorubicin resistance reversal (DX20 cancer cells; FIG. 1, DX20 versus parent MES-SA, addition of d-tetrandrine): either partially or completely reversed
vincristine-resistance reversal (DX20 cancer cells; FIG. 2, DX20 versus parent MES-SA, addition of d-tetrandrine): either partially or completely reversed
vinblastine resistance reversal (DX20 cancer cells; FIG. 3, DX20 versus parent MES-SA, addition of d-tetrandrine): either partially or completely reversed
sensitivity of DX20 to doxorubicin versus parent (MES) cell line (DX20 cancer cells; d-tetrandrine 1.0×10^−6 M combined with doxorubicin 1.2×10^−8 M): becomes more sensitive to doxorubicin than the parent (MES) cell line
tumor outcome [1]: very large tumors which were unabated
L.D.50 dose [2]: 260 mg/kg
doxorubicin-resistance reversal (DX20): either partially or completely reversed
doxorubicin concentration (fluorescence) in resistant versus sensitive cells ([3]; listed as d-tetrandrine): greater in the resistant cancer than it is in the sensitive cancer
doxorubicin concentration (fluorescence) in resistant versus sensitive cells ([3]; listed as tetrandrine (TT)): contains more doxorubicin than the sensitive strain
tumor outcome in patient (breast cancer): substantially eliminated; also recorded: continued to diminish to nonexistence by day 175
d-Tetrandrine-(S) detected at the tumor [4]: 54 micrograms/gram tissue
doxorubicin resistance reversal (A2780AD10): either partially or completely reversed
